One data set deals with pulmonary fibrosis. In words: Pulmonary toxicity (pulmonary fibrosis) in mice. The settings on record: for Incidence: Number of mice with pulmonary fibrosis (%) / Incidence: Number of mice with pulmonary fibrosis / Grade: Total score of pulmonary fibrosis/total number of samples / Grade: Total score of pulmonary fibrosis/total number of samples (%): ICR mice, 5 mg/kg i.p. once a day for 10 days; for Incidence: Number of mice with pulmonary fibrosis (%) / Incidence: Number of mice with pulmonary fibrosis: 5 weeks observation; for Incidence: Number of mice with pulmonary fibrosis: mice with fibrosis/total; for Grade: Total score of pulmonary fibrosis/total number of samples / Grade: Total score of pulmonary fibrosis/total number of samples (%): points 0, 1, 2, 4, 6; for Ratio (by comparison with "Bleomycin Complex"): versus Bleomycin Complex.

Data set [1] deals with Mycobacterium smegmatis ATCC 607. In words: Antimicrobial activity against Mycobacterium smegmatis ATCC 607 (agar plate-cylinder). The settings on record: standard bleomycin A2 (copper-free) assumed 1,000 mcg potency/mg. The format is cell-based. As to the method: (§1) 2. ANT[…] MYC[…] ATCC 607 AND BACILLUS SUBTILIS
(§2) The antimicrobial activity was tested against the captioned test organisms by the method of agar plate-cylinder. The activity was recorded on the assumption that the activity of standard sample of bleomycin A2 (copper-free form) is 1,000 mcg poteney/mg.

The conditions of data set [2]: CDF1/SLC male mice, s.c. once a day for 10 days, Behrens-Karber, daily dose.
Protocol: From the mortality during the administration period, LD50 (daily dose) was determined by the method of Behrens-Karber.
In the next data set the test system is Bacillus subtilis. In words: Antimicrobial activity against Bacillus subtilis (agar plate-cylinder). The class given is cell-based. The settings on record: standard bleomycin A2 (copper-free) assumed 1,000 mcg potency/mg. The procedure: as §1, §2
The target of data set [3] is T1, bleomycin-inactivating enzyme (Rattus norvegicus, UniProt P70645).
T1 sequence (P70645 1-454): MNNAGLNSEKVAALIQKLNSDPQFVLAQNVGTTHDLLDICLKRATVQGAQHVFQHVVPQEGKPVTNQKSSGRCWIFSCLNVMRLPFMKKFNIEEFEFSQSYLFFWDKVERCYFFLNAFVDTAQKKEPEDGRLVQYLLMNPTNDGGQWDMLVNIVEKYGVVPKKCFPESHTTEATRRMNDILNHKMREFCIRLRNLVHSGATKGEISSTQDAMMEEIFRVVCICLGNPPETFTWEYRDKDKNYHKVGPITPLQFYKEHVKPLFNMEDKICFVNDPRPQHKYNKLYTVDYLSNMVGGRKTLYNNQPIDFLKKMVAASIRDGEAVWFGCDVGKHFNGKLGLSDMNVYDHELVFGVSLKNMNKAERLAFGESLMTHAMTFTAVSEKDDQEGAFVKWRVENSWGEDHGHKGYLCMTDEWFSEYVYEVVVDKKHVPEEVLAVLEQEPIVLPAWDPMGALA
In words: in vitro. The conditions noted are these: liver extract.

The test system of the next data set is HeLa S3 cells. In words: Growth inhibitory activity against cultured HeLa S3 cells. The conditions noted are these: 3 days. The format is cell-based. As to the method: 3. GROWTH INHIBITORY ACTIVITY AGAINST CULTURED HELA S3 CELLS
HeLa S3 cells were inoculated into a medium (MEM with 10% bovine serum) placed in a plastic petri dish. Two days thereafter, a bleomycin was added to the dish. After 3 days of breeding, the number of cells were counted. The percentage growth inhibition was calculated using the following equation:
Percentage inhibition (%)=100×(B-A)/(B-C) where A is the final number of cells after 3 days from the addition of test sample, B is the final number of cells in the control without addition of the test smaple, and C is the number of cells at the time of addition of the test sample.

≈ marks a conversion by molar mass, not a printed value.

With `CCCCCCCCNC(=O)C(N)CNC(CC(N)=O)c1nc(N)c(C)c(C(=O)NC(C(=O)NC(C)C(O)C(C)C(=O)NC(C(=O)NCCc2nc(-c3nc(C(=O)NCCCN(C)CCCN(Cc4ccc(OCc5ccccc5)c(OCc5ccccc5)c4)Cc4ccc(OCc5ccccc5)c(OCc5ccccc5)c4)cs3)cs2)C(C)O)C(OC2OC(CO)C(O)C(O)C2OC2OC(CO)C(O)C(OC(N)=O)C2O)c2cnc[nH]2)n1` (stereo not drawn) [Compound 65, 3-{N--methyl-N--[3-bis(m,p-dibenzyloxybenzyl)aminopropyl]amino}-propylamino-(amido)N--[n-octyl]-BLM], in the data set with pulmonary fibrosis, the “Incidence: Number of mice with pulmonary fibrosis (%)” value (“Incidence: Number of mice … (%)” for short) amounted to 0%, the “Incidence: Number of mice with pulmonary fibrosis” value is given as 0/9, the “Grade: Total score of pulmonary fibrosis/total number of samples” value is 0/27 and the “Grade: Total score of pulmonary fibrosis/total number of samples (%)” value is 0%. Further, the “Ratio (by comparison with "Bleomycin Complex")” value with pulmonary fibrosis amounted to 0. Also, the “Antimicrobial potency of Cu-free compound against Mycobacterium smegmatis ATCC 607” value in data set [1] is recorded as 153 mcg potency/mg. Further, the “LD50 during administration period of 10 consecutive days” value (shortened to “LD50 during administration period”) in data set [2] is on record as greater than 75.7 mg/kg/day. Moreover, the “Antimicrobial potency of Cu-free compound against Bacillus subtilis” value with Bacillus subtilis was found to be 13 mcg potency/mg.
`Cc1c(N)nc(C(CC(N)=O)NCC(N)C(N)=O)nc1C(=O)NC(C(=O)NC(C)C(O)C(C)C(=O)NC(C(=O)NCCc1nc(-c2nc(C(=O)NCCCCNC(=N)N)cs2)cs1)C(C)O)C(OC1OC(CO)C(O)C(O)C1OC1OC(CO)C(O)C(OC(N)=O)C1O)c1cnc[nH]1` (stereo not drawn) [bleomycin B2, reference compound] gave a metabolised at 40 min in data set [3] of 50%.
Consider `Cc1c(N)nc(C(CC(N)=O)NCC(N)C(=O)NCCCNC(C)c2ccccc2)nc1C(=O)NC(C(=O)NC(C)C(O)C(C)C(=O)NC(C(=O)NCCc1nc(-c2nc(C(=O)NCCC[N+](C)(C)CCCN(Cc3ccccc3)Cc3ccccc3)cs2)cs1)C(C)O)C(OC1OC(CO)C(O)C(O)C1OC1OC(CO)C(O)C(OC(N)=O)C1O)c1cnc[nH]1` [Compound 52, 3-{N,N--dimethyl-N--[dibenzylamino)propyl]amino}-propylamino-(amido)N--[3-((S)-1'-phenyl)aminopropyl]-BLM], for which, in the data set with pulmonary fibrosis, the “Incidence: Number of mice … (%)” value was 0%, the “Incidence: Number of mice with pulmonary fibrosis” value is on record as 0/9, the “Grade: Total score of pulmonary fibrosis/total number of samples” value is 0/27 and the “Grade: Total score of pulmonary fibrosis/total number of samples (%)” value came to 0%. Besides, in the data set with pulmonary fibrosis, the “Ratio (by comparison with "Bleomycin Complex")” value is 0. Also, the “Antimicrobial potency of Cu-free compound against Mycobacterium smegmatis ATCC 607” value in data set [1] came to 21371 mcg potency/mg. Further, the “LD50 during administration period” value in data set [2] is 13.9 mg/kg/day. Moreover, the “Antimicrobial potency of Cu-free compound against Bacillus subtilis” value with Bacillus subtilis is listed as 2372 mcg potency/mg.
Take `CNC(=O)C(N)CNC(CC(N)=O)c1nc(N)c(C)c(C(=O)NC(C(=O)NC(C)C(O)C(C)C(=O)NC(C(=O)NCCc2nc(-c3nc(C(=O)NCCc4c[nH]cn4)cs3)cs2)C(C)O)C(OC2OC(CO)C(O)C(O)C2OC2OC(CO)C(O)C(OC(N)=O)C2O)c2cnc[nH]2)n1` (stereo not drawn) [Compound 1, 2-(4'-Imidazolyl)ethylamino-(amido)N--[methyl]-BLM]: the “Antimicrobial potency of Cu-free compound against Mycobacterium smegmatis ATCC 607” value in data set [1] is 1447 mcg potency/mg. Further, in the data set with HeLa S3 cells (Homo sapiens, HeLa S3, 72 h, Cu-free, read-out: 50% Growth inhibitory concentration of Cu-free compd. against cultured HeLaS3 cells (ID50)), the IC50 turned out to be 1.2 µg/mL (≈ 0.845 µM). Moreover, the “Antimicrobial potency of Cu-free compound against Bacillus subtilis” value in the data set with Bacillus subtilis worked out at 654 mcg potency/mg. The compound also had a metabolised at 40 min in data set [3] of 5 to 14%.
Regarding `Cc1c(N)nc(C(CC(N)=O)NCC(N)C(=O)NCCCNC(C)c2ccccc2)nc1C(=O)NC(C(=O)NC(C)C(O)C(C)C(=O)NC(C(=O)NCCc1nc(-c2nc(C(=O)NCCCN(C)CCCN(Cc3ccc(OCc4ccccc4)c(OCc4ccccc4)c3)Cc3ccc(OCc4ccccc4)c(OCc4ccccc4)c3)cs2)cs1)C(C)O)C(OC1OC(CO)C(O)C(O)C1OC1OC(CO)C(O)C(OC(N)=O)C1O)c1cnc[nH]1` [Compound 64, 3-{N--methyl-N--[3-bis(m,p-dibenzyloxybenzyl)aminopropyl]amino}-propylamino-(amido)N--[3-((S)-1'-phenylethyl)aminopropyl]-BLM], in the data set on pulmonary fibrosis, the “Incidence: Number of mice … (%)” value worked out at 0%, the “Incidence: Number of mice with pulmonary fibrosis” value was 0/9, the “Grade: Total score of pulmonary fibrosis/total number of samples” value is reported as 0/27 and the “Grade: Total score of pulmonary fibrosis/total number of samples (%)” value is listed as 0%. Further, in the data set on pulmonary fibrosis, the “Ratio (by comparison with "Bleomycin Complex")” value is given as 0. In addition, the “Antimicrobial potency of Cu-free compound against Mycobacterium smegmatis ATCC 607” value in data set [1] amounted to 115 mcg potency/mg. In addition, the “LD50 during administration period” value in data set [2] is on record as greater than 81.4 mg/kg/day. Further, the “Antimicrobial potency of Cu-free compound against Bacillus subtilis” value with Bacillus subtilis was 23 mcg potency/mg.
“4-Guanidinobutylamino-(amido)N--[1',6'-dimethylheptyl]-BLM [Compound 8]”: the “Antimicrobial potency of Cu-free compound against Mycobacterium smegmatis ATCC 607” value in data set [1] is 24880 mcg potency/mg. For the same compound, in the data set on HeLa S3 cells, the “50% Growth inhibitory concentration of Cu-free compd. against cultured HeLaS3 cells (ID50)” value is 0.62 µg/mL. The “Antimicrobial potency of Cu-free compound against Bacillus subtilis” value in the data set on Bacillus subtilis was 950 mcg potency/mg.
In the same order, the values of “3-((S)-1'-phenylethylamino)propylamino-(amido)N--[1,6-dimethyl-heptyl]-BLM [Compound 32]” are 39956 mcg potency/mg, 0.83 µg/mL and 298 mcg potency/mg.
Consider `CCCCCCCCNC(=O)C(N)CNC(CC(N)=O)c1nc(N)c(C)c(C(=O)NC(C(=O)NC(C)C(O)C(C)C(=O)NC(C(=O)NCCc2nc(-c3nc(C(=O)NCCC[N+](C)(C)CCCN(Cc4ccccc4)Cc4ccccc4)cs3)cs2)C(C)O)C(OC2OC(CO)C(O)C(O)C2OC2OC(CO)C(O)C(OC(N)=O)C2O)c2cnc[nH]2)n1` (stereo not drawn) [Compound 53, 3-{N,N--dimethyl-N--[3-(dibenzylamino)propyl]amino}-propylamino-(amido)N--[n-octyl]-BLM], for which, in the data set with pulmonary fibrosis, the “Incidence: Number of mice … (%)” value is 0%, the “Incidence: Number of mice with pulmonary fibrosis” value was 0/9, the “Grade: Total score of pulmonary fibrosis/total number of samples” value is reported as 0/27 and the “Grade: Total score of pulmonary fibrosis/total number of samples (%)” value is on record as 0%. Moreover, the “Ratio (by comparison with "Bleomycin Complex")” value with pulmonary fibrosis is 0. Besides, the “Antimicrobial potency of Cu-free compound against Mycobacterium smegmatis ATCC 607” value in data set [1] was 40703 mcg potency/mg. Moreover, in data set [2], the “LD50 during administration period” value is 15.0 mg/kg/day. Also, the “Antimicrobial potency of Cu-free compound against Bacillus subtilis” value with Bacillus subtilis is listed as 595 mcg potency/mg.
As for `Cc1c(N)nc(C(CC(N)=O)NCC(N)C(=O)NCCCNC(C)c2ccccc2)nc1C(=O)NC(C(=O)NC(C)C(O)C(C)C(=O)NC(C(=O)NCCc1nc(-c2nc(C(=O)NCCCN(C)CCCNCc3ccc(Cl)cc3)cs2)cs1)C(C)O)C(OC1OC(CO)C(O)C(O)C1OC1OC(CO)C(O)C(OC(N)=O)C1O)c1cnc[nH]1` [Compound 39, 3-{N--methyl-N--[3-(p-chlorobenzyl)aminopropyl]amino}-propylamino-(amino)N--[3-(S)-1'-phenylethyl)aminopropyl]-BLM], in the data set on pulmonary fibrosis, the “Incidence: Number of mice … (%)” value was found to be 20%, the “Incidence: Number of mice with pulmonary fibrosis” value was 2/9, the “Grade: Total score of pulmonary fibrosis/total number of samples” value is given as 2/27 and the “Grade: Total score of pulmonary fibrosis/total number of samples (%)” value was 7%. Further, in the data set with pulmonary fibrosis, the “Ratio (by comparison with "Bleomycin Complex")” value is on record as 0.07. Moreover, the “Antimicrobial potency of Cu-free compound against Mycobacterium smegmatis ATCC 607” value in data set [1] was found to be 14880 mcg potency/mg. The “Antimicrobial potency of Cu-free compound against Bacillus subtilis” value in the data set with Bacillus subtilis stood at 2590 mcg potency/mg.
Turning to `CCCCCCCCNC(=O)C(N)CNC(CC(N)=O)c1nc(N)c(C)c(C(=O)NC(C(=O)NC(C)C(O)C(C)C(=O)NC(C(=O)NCCc2nc(-c3nc(C(=O)NCCC[N+](CC)(CC)CCCN(Cc4ccccc4)Cc4ccccc4)cs3)cs2)C(C)O)C(OC2OC(CO)C(O)C(O)C2OC2OC(CO)C(O)C(OC(N)=O)C2O)c2cnc[nH]2)n1` (stereo not drawn) [Compound 56, 3-{N,N--diethyl-N--[3-(dibenzylamino)propyl]amino}propylamino-(amido)N--[octyl]-BLM], in the data set on pulmonary fibrosis, the “Incidence: Number of mice … (%)” value is recorded as 0%, the “Incidence: Number of mice with pulmonary fibrosis” value is given as 0/9, the “Grade: Total score of pulmonary fibrosis/total number of samples” value is given as 0/27 and the “Grade: Total score of pulmonary fibrosis/total number of samples (%)” value came out at 0%. The “Ratio (by comparison with "Bleomycin Complex")” value with pulmonary fibrosis amounted to 0. Moreover, in data set [1], the “Antimicrobial potency of Cu-free compound against Mycobacterium smegmatis ATCC 607” value was 41380 mcg potency/mg. Further, the “Antimicrobial potency of Cu-free compound against Bacillus subtilis” value in the data set with Bacillus subtilis is reported as 520 mcg potency/mg.
